In experiment [1] the target is T1, ADGRF1 (Homo sapiens, UniProt Q5T601, F823A).
T1 construct: Flag (N); expressed in transfected cells; host or cells: HEK293F
As to the kind of experiment: BRET assay using TRUPATH biosensors, Gi activation of ADGRF1. The format is cell-based. As to conditions: ADGRF1 F823^7.42bA. In short, it runs like this:
(§1)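 G protein activation by synthetic stalk peptides, read as GFP2-to-RLuc8 emission ratio from the fifth of five successive readings. Cells: HEK293F expressing receptor (WT or mutant) with GαsS-RLuc8 or Gαi1-RLuc8 plus Gβ3 and Gγ9-GFP2 (2:1:1:1). Pre-incubated 30 min at 37 °C; substrate coelenterazine 400a.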
A general note: In BRET a luciferase serves as donor, and the signal depends on an acceptor being close.

Experiment [2] concerns the target T2, ADGRF1 (Homo sapiens, UniProt Q5T601, T589A).
T2 construct: Flag (N); expressed in transfected cells; host or cells: HEK293F
The experiment is described as above. The format is cell-based. The settings on record: ADGRF1 T589^1.40bA. In short, it runs like this:
as §1

Where [3] appears, read: n = 3, read-out: pEC50 (mean ± s.e.m.) (converted).

Ends that are not written are not given here.

T1 sequence (Q5T601 20-910 F823A): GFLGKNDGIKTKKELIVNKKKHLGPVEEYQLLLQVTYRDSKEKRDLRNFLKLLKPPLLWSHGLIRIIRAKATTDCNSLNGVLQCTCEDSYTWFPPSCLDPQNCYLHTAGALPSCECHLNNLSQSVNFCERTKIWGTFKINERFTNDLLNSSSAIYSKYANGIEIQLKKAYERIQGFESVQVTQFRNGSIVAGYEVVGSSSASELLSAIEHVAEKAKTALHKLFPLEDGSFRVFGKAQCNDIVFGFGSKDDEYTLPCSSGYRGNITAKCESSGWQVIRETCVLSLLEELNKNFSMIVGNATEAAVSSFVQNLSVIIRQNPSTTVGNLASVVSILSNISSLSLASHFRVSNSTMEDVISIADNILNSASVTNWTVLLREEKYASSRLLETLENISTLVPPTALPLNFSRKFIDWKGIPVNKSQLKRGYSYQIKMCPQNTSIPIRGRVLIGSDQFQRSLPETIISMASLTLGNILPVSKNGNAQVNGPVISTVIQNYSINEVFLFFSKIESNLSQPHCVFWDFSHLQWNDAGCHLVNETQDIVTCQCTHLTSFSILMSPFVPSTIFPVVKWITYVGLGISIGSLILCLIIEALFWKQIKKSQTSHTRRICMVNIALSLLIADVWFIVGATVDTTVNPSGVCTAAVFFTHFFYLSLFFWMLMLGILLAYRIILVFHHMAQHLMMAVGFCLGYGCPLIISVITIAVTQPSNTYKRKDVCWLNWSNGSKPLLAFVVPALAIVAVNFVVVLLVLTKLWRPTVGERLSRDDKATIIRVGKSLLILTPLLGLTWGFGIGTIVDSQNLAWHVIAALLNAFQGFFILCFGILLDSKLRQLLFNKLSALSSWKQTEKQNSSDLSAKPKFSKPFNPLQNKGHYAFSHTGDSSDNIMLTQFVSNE
T2 sequence (Q5T601 20-910 T589A): as the sequence (Q5T601 20-910 F823A) above, with T570A, A804F counted along it

Regarding TSFSILMSPFVP [pF1], the “Emax (mean ± s.e.m.)” value on ADGRF1 [1] (n = 3) is 90 ± 14 % of WT; at ADGRF1 [2] (n = 3) it was 114 ± 13 % of WT. The EC50 at ADGRF1 [1] (setting [3]) was 316 nM; at ADGRF1 [2] (setting [3]) it was 87.1 nM.
